Assay results from patent US7732200B2, “Materials and methods for nerve grafting, selection of nerve grafts, and in vitro nerve tissue culture” (University of Florida Research Foundation, Inc., priority 2001, dated 2010).

Assays:
sciatic nerve [1] = assay: Axonal regeneration after sciatic nerve transection (neurotmesis) and neurorrhaphic repair; type: in vivo, rat
CSPG = CSPG neoepitope immunolabeling of chondroitinase-treated human nerve segments
From the text: Many of the experiments described in the examples above performed using rat nerves also have been replicated using human nerve. Except where otherwise indicated, the procedures described in Examples 1 and 2 using rat nerve were also followed in Examples 6 and 7 using human nerve. Human sural and tibial nerves were obtained fresh from surgical leg amputation.
Human nerves were first examined to determine if their content of CSPG and laminin was similar to that observed in rat nerves. […] Human nerves stained for CSPG neoepitope and laminin are shown, respectively, in FIGS. 9A and 9B.

sciatic nerve [2] = assay: Axonal regeneration after bilateral sciatic nerve crush injury (axonotmesis); type: in vivo, rat; conditions: 1 U in 2 μl; 2 days after injury; 6 nerves per condition
Protocol: Surgical procedures for nerve transection and nerve crush experiments. All surgical procedures were performed according to Institutional Animal Care and Use Committee (IACUC) approved protocols. Young adult SPRAGUE DAWLEY rats (HARLAN Indianapolis, Ind.) were deeply anesthetized with xylazine (15 mg/kg, i.m.) followed by ketamine-HCl (110 mg/kg, i.p.). Six animals received bilateral nerve crush injuries. Sciatic nerves were exposed and then crushed with firm pressure for thirty seconds with a DUMONT #5 forceps at a site 4 mm distal to the tendon of the internal obdurator. The crush site was marked with an epineurial suture. In a separate set of experiments, eight rats received bilateral sciatic nerve transection injuries using serrated scissors. The proximal and distal stumps were […] by epineurial neurorrhaphy using 9-0 ETHILON sutures. Fibrin glue (fibrinogen and thrombin) was then applied to stabilize the union. […]
Immunocytochemistry. Axonal regeneration was assessed by GAP-43 immunofluorescence and digital image analysis. […]
The hypothesis that chondroitinase treatment improves axonal growth through the site of nerve crush injury was tested. […] Regenerating axons were labeled by GAP-43 immunofluorescence and scored by digital image analysis. […]

chondroitinase ABC
score of axons immediately distal to the coaptation vs control (sciatic nerve [1]; 1 U in 2 μl, 4 days after injury, 7 nerves per condition): two-fold greater
animals in which the number of axons entering the distal nerve was greater than in the control nerve (sciatic nerve [1]; 4 days after injury): 7/7
propensity of axons to regrow within basal laminae of the distal nerve (sciatic nerve [1]; GAP-43 and laminin double-immunolabeling): unaltered
animals with increases greater than 3.5-fold (sciatic nerve [1]; axons immediately distal to coaptation, 4 days): 3/7
CSPG side chain degradation by neoepitope labeling (CSPG): effectively degraded
axonal regeneration after nerve crush injury (GAP-43 immunoreactivity) vs vehicle (sciatic nerve [2]): not significantly effected
